For 30 compounds, IC50 results are on record in patent US20220041583A1, “IMMUNOMODULATORS, COMPOSITIONS AND METHODS THERE OF” (BETTA PHARMACEUTICALS CO., LTD, priority 2018, published 2022).

The structures appear in SMILES notation.

For the first assay, the target named is T1, PD-1/PD-L1 (Homo sapiens, UniProt Q9NZQ7).
T1 construct: Recombinant human PD-L1 protein (19-238) with a His-tag at the C-terminus; purchased AcroBiosystems PD1-H5229 (PD-L1); PD1-H5257 (PD-1)
T1 sequence (Q9NZQ7 19-238): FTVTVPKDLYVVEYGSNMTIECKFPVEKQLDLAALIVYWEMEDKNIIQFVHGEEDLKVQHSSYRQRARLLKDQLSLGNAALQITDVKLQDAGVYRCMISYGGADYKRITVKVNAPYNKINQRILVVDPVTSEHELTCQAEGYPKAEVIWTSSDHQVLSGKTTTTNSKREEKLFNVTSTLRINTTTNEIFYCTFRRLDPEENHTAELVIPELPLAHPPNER
As to the kind of experiment: PD-1/PD-L1 homogenous time-resolved fluorescence (HTRF) binding assay. As to conditions: Table 6, class symbols. How it is done: Resolved Fluorescence (HTRF) Binding Assay
The assays were conducted in a standard black 384-well polystyrene plate with a final volume of 20 μL. Inhibitors were first serially diluted in DMSO and then added to the plate wells before the addition of other reaction components. The final concentration of DMSO in the assay was 1%. The assays were carried out at 25° C. in the PBS buffer (pH 7.4) with 0.05% Tween-20 and 0.1% BSA. Recombinant human PD-L1 protein (19-238) with a His-tag at the C-terminus was purchased from AcroBiosy stems (PD1-H5229). Recombinant human PD-1 protein (25-167) with Fc tag at the C-terminus was also purchased from AcroBiosystems (PD1-H5257). PD-L1 and PD-1 proteins were diluted in the assay buffer and 10 μL was added to the plate well. Plates were centrifuged and proteins were preincubated with inhibitors for 40 min. The incubation was followed by the addition of 10 μL of HTRF detection buffer supplemented with Europium cryptate-labeled anti-human IgG (PerkinElmer-AD0212) specific for Fc and anti-His antibody conjugated to SureLight®-Allophycocyanin (APC, PerkinElmer-AD0059H). After centrifugation, the plate was incubated at 25° C. for 60 min. Before reading on a PHERAstar FS plate reader (665 nm/620 nm ratio). Final concentrations in the assay were […] PD1, 10 nM PD-L1, 1 nM europium anti-human IgG and 20 nM anti-His-Allophycocyanin. IC50 determination was performed by fitting the curve of percent control activity versus the log of the inhibitor concentration using the GraphPad Prism 5.0 software.
On the technique in general: In TR-FRET formats the signal depends on donor and acceptor labels being close together.
Regarding `CSc1cc2oc(-c3cccc(-c4ccccc4)c3C)nc2cc1CN[C@@H](C)C(=O)O` [Example 5, ((2-(2-methyl-[1,1′-biphenyl]-3-yl)-6-(methylthio)benzo[d]oxazol-5-yl)methyl)-L-alanine], the IC50 (as a rule, the concentration that gives 50% inhibition) was in the range of 0.0001 to 0.01 µM.

`Cc1c(-c2ccccc2)cccc1-c1nc2cc(CN3CCC[C@H]3C(=O)O)c(OCC(F)(F)F)cc2o1` [Example 60, ((2-(2-methyl-[1,1′-biphenyl]-3-yl)-6-(2,2,2-trifluoroethoxy)benzo[d]oxazol-5-yl)methyl)-L-proline]: the IC50 was in the range of 0.01 to 0.1 µM.

With `CSc1cc2oc(-c3cccc(-c4ccccc4)c3C)nc2cc1CN1CCOC[C@H]1C(=O)O` [Example 9, (S)-4-((2-(2-methyl-[1,1′-biphenyl]-3-yl)-6-(methylthio)benzo[d]oxazol-5-yl)methyl)morpholine-3-carboxylic acid], the IC50 lay within 0.0001 to 0.01 µM.

`CC[C@@H](NCc1cc2nc(-c3cccc(-c4ccccc4)c3C)oc2cc1SC)C(=O)O` [Example 11, (R)-2-(((2-(2-methyl-[1,1′-biphenyl]-3-yl)-6-(methylthio)benzo[d]oxazol-5-yl)methyl)amino)butanoic acid] returned an IC50 of 0.01 to 0.1 µM.

`Cc1c(-c2ccccc2)cccc1-c1nc2cc(CN3CCCCC3C(=O)O)c3c(c2o1)C(=O)CO3` (stereo not drawn) [Example 68, 1-((2-(2-methyl-[1,1′-biphenyl]-3-yl)-8-oxo-7,8-dihydrobenzofuro[5,4-d]oxazol-5-yl)methyl)piperidine-2-carboxylic acid] showed an IC50 of 0.1 to 1 µM.

With `Cc1c(-c2ccccc2)cccc1-c1nc2cc(CN3CCC3C(=O)O)c(OC(F)F)cc2o1` (stereo not drawn) [Example 48, 1-((6-(difluoromethoxy)-2-(2-methyl-[1,1′-biphenyl]-3-yl)benzo[d]oxazol-5-yl)methyl)azetidine-2-carboxylic acid], the IC50 was 0.0001 to 0.01 µM.

The compound `Cc1c(-c2ccccc2)cccc1-c1nc2cc(CN3CCC[C@@H]3C(=O)O)c(OC(F)F)cc2o1` [Example 37, ((6-(difluoromethoxy)-2-(2-methyl-[1,1′-biphenyl]-3-yl)benzo[d]oxazol-5-yl)methyl)-D-proline] yielded an IC50 of 0.01 to 0.1 µM.

Turning to `CSc1cc2oc(-c3cccc(-c4ccccc4C#N)c3C#N)nc2cc1CN1CCC[C@H]1C(=O)O` [Example 15, ((2-(2,2′-dicyano-[1,1′-biphenyl]-3-yl)-6-(methylthio)benzo[d]oxazol-5-yl)methyl)-L-proline], the IC50 lay in the range of 0.01 to 0.1 µM.

Compound `CC[C@H](NCc1cc2nc(-c3cccc(-c4ccccc4)c3C)oc2cc1SC)C(=O)O` [Example 10, (S)-2-(((2-(2-methyl-[1,1′-biphenyl]-3-yl)-6-(methylthio)benzo[d]oxazol-5-yl)methyl)amino)butanoic acid] yielded an IC50 of 0.0001 to 0.01 µM.

`Cc1c(-c2ccccc2)cccc1-c1nc2cc(CN3CCC[C@H]3C(=O)O)c(S(C)(=O)=O)cc2o1` [Example 66, ((2-(2-methyl-[1,1′-biphenyl]-3-yl)-6-(methylsulfonyl)benzo[d]oxazol-5-yl)methyl)-L-proline] had an IC50 of 0.0001 to 0.01 µM.

The compound `Cc1c(-c2nc3cc(CN4CCC[C@H]4C(=O)O)c(OC(F)F)cc3o2)cccc1-c1ccccc1C#N` [Example 51, ((2-(2′-cyano-2-methyl-[1,1′-biphenyl]-3-yl)-6-(difluoromethoxy)benzo[d]oxazol-5-yl)methyl)proline] displayed an IC50 of 0.01 to 0.1 µM.

`N#Cc1c(-c2ccccc2)cccc1-c1nc2cc(CN3CCOC[C@H]3C(=O)O)c(OCC(F)(F)F)cc2o1` [Example 57, (S)-4-((2-(2-cyano-[1,1′-biphenyl]-3-yl)-6-(2,2,2-trifluoroethoxy)benzo[d]oxazol-5-yl)methyl)morpholine-3-carboxylic acid] yielded an IC50 of 0.01 to 0.1 µM.

Compound `Cc1c(-c2ccccc2)cccc1-c1nc2cc(CN3CCCCC3C(=O)O)n3ncnc3c2o1` (stereo not drawn) [Example 69, 1-((8-(2-methyl-[1,1′-biphenyl]-3-yl)oxazolo[5,4-c][1,2,4]triazolo[1,5-a]pyridin-5-yl)methyl)piperidine-2-carboxylic acid] registered an IC50 of 0.1 to 1 µM.

For `CSc1cc2oc(-c3cccc(-c4ccccc4)c3C)nc2cc1CN1CCCC1(C)C(=O)O` (stereo not drawn) [Example 16, 2-methyl-1-((2-(2-methyl-[1,1′-biphenyl]-3-yl)-6-(methylthio)benzo[d]oxazol-5-yl)methyl)pyrrolidine-2-carboxylic acid], the IC50 was 0.0001 to 0.01 µM.

With `Cc1c(-c2ccccc2)cccc1-c1nc2cc(CN3CCCC3(C)C(=O)O)c(OC(F)F)cc2o1` (stereo not drawn) [Example 50, 1-((6-(difluoromethoxy)-2-(2-methyl-[1,1′-biphenyl]-3-yl)benzo[d]oxazol-5-yl)methyl)-2-methylpyrrolidine-2-carboxylic acid], the concentration for half-maximal inhibition (IC50) lay within 0.0001 to 0.01 µM.

On to `CSc1cc2oc(-c3cccc(-c4ccccc4)c3C)nc2cc1CN[C@@H](C(=O)O)[C@@H](C)O` [Example 3, ((2-(2-methyl-[1,1′-biphenyl]-3-yl)-6-(methylthio)benzo[d]oxazol-5-yl)methyl)-D-allothreonine], for which the IC50 is 0.01 to 0.1 µM.

`CC[C@H](NCc1cc2nc(-c3cccc(-c4ccccc4)c3C)oc2cc1OC(F)F)C(=O)O` [Example 40, (S)-2-(((6-(difluoromethoxy)-2-(2-methyl-[1,1′-biphenyl]-3-yl)benzo[d]oxazol-5-yl)methyl)amino)butanoic acid] returned an IC50 of 0.0001 to 0.01 µM.

Compound `Cc1c(-c2ccccc2)cccc1-c1nc2cc(CN3CCC[C@H]3C(=O)O)c(OS(C)(=O)=O)cc2o1` [Example 64, ((2-(2-methyl-[1,1′-biphenyl]-3-yl)-6-((methylsulfonyl)oxy)benzo[d]oxazol-5-yl)methyl)-L-proline] displayed an IC50 of 0.0001 to 0.01 µM.

As to `Cc1c(-c2ccccc2)cccc1-c1nc2cc(CN3CCC[C@H]3C(=O)O)c(O)cc2o1` [Example 21, ((6-hydroxy-2-(2-methyl-[1,1′-biphenyl]-3-yl)benzo[d]oxazol-5-yl)methyl)-L-proline], the IC50 lay within 0.01 to 0.1 µM.

In turn, `Cc1c(-c2ccccc2)cccc1-c1nc2cc(CN3CCCCC3C(=O)O)c(OCC(F)F)cc2o1` (stereo not drawn) [Example 55, 1-((6-(2,2-difluoroethoxy)-2-(2-methyl-[1,1′-biphenyl]-3-yl)benzo[d]oxazol-5-yl)methyl)piperidine-2-carboxylic acid] had an IC50 of 0.01 to 0.1 µM.

In the case of `CSc1cc2oc(-c3cccc(-c4ccccc4)c3C)nc2cc1CN1CCC[C@@H]1C(=O)O` [Example 7, ((2-(2-methyl-[1,1′-biphenyl]-3-yl)-6-(methylthio)benzo[d]oxazol-5-yl)methyl)-D-proline], the concentration for half-maximal inhibition (IC50) was in the range of 0.0001 to 0.01 µM.

With `Cc1c(-c2ccccc2)cccc1-c1nc2cc(CN3CCCC3(C)C(=O)O)c(OC(F)F)cc2o1` (stereo not drawn) [Example 46, 1-((6-(difluoromethoxy)-2-(2-methyl-[1,1′-biphenyl]-3-yl)benzo[d]oxazol-5-yl)methyl)-2-methylpyrrolidine-2-carboxylic acid], the concentration for half-maximal inhibition (IC50) was 0.0001 to 0.01 µM.

For the compound `Cc1c(-c2ccccc2)cccc1-c1nc2cc(CNCC(=O)O)c(OC(F)F)cc2o1` [Example 35, ((6-(difluoromethoxy)-2-(2-methyl-[1,1′-biphenyl]-3-yl)benzo[d]oxazol-5-yl)methyl)glycine], the IC50 was 0.0001 to 0.01 µM.

Take `Cc1c(-c2ccccc2)cccc1-c1nc2cc(CN[C@@H](C)C(=O)O)c(OC(F)F)cc2o1` [Example 33, ((6-(difluoromethoxy)-2-(2-methyl-[1,1′-biphenyl]-3-yl)benzo[d]oxazol-5-yl)methyl)-L-alanine]: the IC50 fell in the range of 0.0001 to 0.01 µM.

Consider `Cc1c(-c2ccccc2)cccc1-c1nc2cc(CN[C@H](C)C(=O)O)c(OC(F)F)cc2o1` [Example 34, ((6-(difluoromethoxy)-2-(2-methyl-[1,1′-biphenyl]-3-yl)benzo[d]oxazol-5-yl)methyl)-D-alanine], for which the IC50 fell in the range of 0.01 to 0.1 µM.

The assay is the same for the next values; noted with them: Table 6, numeric values.
On to `Cc1c(-c2ccccc2)cccc1-c1nc2cc(CN3CCC[C@H]3C(=O)O)c(F)cc2o1` [Example 24, ((6-fluoro-2-(2-methyl-[1,1′-biphenyl]-3-yl)benzo[d]oxazol-5-yl)methyl)-L-proline], for which the IC50 was 0.0072 µM.

Turning to `Cc1c(-c2ccccc2)cccc1-c1nc2cc(CN[C@H](C(=O)O)[C@H](C)O)c(OC(F)F)cc2o1` [Example 31, ((6-(difluoromethoxy)-2-(2-methyl-[1,1′-biphenyl]-3-yl)benzo[d]oxazol-5-yl)methyl)-L-allothreonine], the IC50 turned out to be 0.0032 µM.

For `Cc1c(-c2ccccc2)cccc1-c1nc2cc(CN[C@@H](C(=O)O)[C@@H](C)O)c(OC(F)F)cc2o1` [Example 30, ((6-(difluoromethoxy)-2-(2-methyl-[1,1′-biphenyl]-3-yl)benzo[d]oxazol-5-yl)methyl)-D-allothreonine], the IC50 stood at 0.0048 µM. This IC50 and that of the compound before are within 1.5-fold of each other.

For the compound `Cc1c(-c2ccccc2)cccc1-c1nc2cc(CN3CCCC[C@H]3C(=O)O)c(F)cc2o1` [Example 25, (S)-1-((6-fluoro-2-(2-methyl-[1,1′-biphenyl]-3-yl)benzo[d]oxazol-5-yl)methyl)piperidine-2-carboxylic acid], the 50% inhibitory concentration (IC50) was 0.0074 µM.

In turn, `Cc1c(-c2ccccc2)cccc1-c1nc2cc(CN[C@@H](CO)C(=O)O)c(OC(F)F)cc2o1` [Example 43, ((6-(difluoromethoxy)-2-(2-methyl-[1,1′-biphenyl]-3-yl)benzo[d]oxazol-5-yl)methyl)-L-serine] displayed an IC50 of 0.0018 µM.
